# Laboratory results published in PMC10340464, “Identification of a Novel SSTR3 Full Agonist for the Treatment of Nonfunctioning Pituitary Adenomas” (Cancers, 2023).
# How the values were obtained:
# SSTR5-tGFP = assay: Receptor internalization in U2OS-transfected cells (SSTR5-tGFP); assay type: cell-based, human; conditions: 7 h, high-content imaging, n = 3, method: percentage of activity relative to SST28 10^−6 M
# Experimental: (§1) Compounds were tested at five concentrations (10^−5, 10^−6, 10^−7, 10^−8, 10^−9 M) in comparison to untreated cells.
# (§2) SST agonists were added to U2OS recombinant cell lines in OptiMeM medium (Life technologies 51985-034, Monza, Italy) for 3 h (SSTR2, SSTR3) or 7 h (SSTR5) (n = 3). After formaldehyde fixation, nuclei were stained using DAPI (2 µg/mL), and the fluorescence was measured with BD Pathway 855 High-Content Bioimager from Becton Dickinson. The receptor internalization was calculated using AttoVision 1.6 Software. Approximately 500 cells per field were analyzed. […]
# (§3) (Invitrogen, Carlsbad, CA). Stable transfectants were selected in the presence of 500 µg/ml G-418. […]
# (§4) % picric acid in phosphate buﬀer (pH 6.9) for 30 minutes at room temperature (RT). […]
# (§5) 3.2. U2OS human cell lines transfected with human receptors (SSTR2-tGFP, SSTR3-tGFP,
# (§6) Compounds were tested at ﬁve d iﬀerent concentrations (10-5, 10-6, 10-7, 10-8, 10^-9 M) in comparison to untreated cells.
# (§7) U2OS recombinant cell lines were obtained from Innoprot (Derio, Spain). […] Nuclei were stained using DAPI (2 μg/ml) and the ﬂuorescence was measured using a BD Pathway 855 High-Content Bioimager from Becton Dickinson. The receptor internalization was calculated using AttoVision Software. […]
# (§8) Agonist activity of test compounds was calculated relatively to positive control
# HA-SSTR3 = assay: SSTR3 phosphorylation, Western blot with phosphosite-specific antibodies, HEK293-transfected; assay type: cell-based, human; set-up: key: + = very low activity; ++ = low activity; +++ = high activity; ++++ = very high activity; conditions: HEK293 stably expressing HA-SSTR3, agonist 5 min 37 °C
# Experimental: (§9) Western blot analysis was performed as previously described.
# (§10) Next, the activation of human SSTRs induced by SSAs was tested by Western blot using phosphosite-specific antibodies directed against the following residues: S341/pS343 for SSTR2; S337/T341 for SSTR3; T333 for SSTR5 [31].
# (§11) 4.1. Western blot analysis
# (§12) Western blot analysis was performed as previously described.7–9 Brieﬂy, HEK293 cells stably expressing the human somatostatin receptors were seeded onto poly-L-lysine-coated 60 mm dishes and grown to 90 % confluency. […]
# (§13) PierceTM HA epitope tag antibody beads (Thermo Scientific, Rockford, USA) were used to enrich HA-tagged somatostatin receptors or wheat germ lectin-agarose beads for no-tagged somatostatin receptors. To elute proteins from the beads, the samples were incubated in SDS sample buffer for 20 min at 60°C. Supernatants were separated from the beads, loaded on 8% SDS polyacrylamide gels and immunoblotted onto nitrocellulose membranes afterwards. After blocking, membranes were incubated with phosphorylation state-speciﬁc somatostatin receptor antibodies: pS337/pT341-SST3 (7TM0357A), […]
# (§14) Antibodies GmbH, Jena, Germany) at a dilution of 1:1000 at 4°C overnight. Membranes were incubated in HRP-linked secondary antibody for 2 hours, followed by detection using a chemiluminescence system (90 mM p-coumaric-acid, 250 mM luminol, 30% […]
# (§15) according to the manufacturer’s instructions.
# SSTR2-tGFP = assay: Receptor internalization in U2OS-transfected cells (SSTR2-tGFP); assay type: cell-based, human; conditions: 3 h, high-content imaging, n = 3, method: percentage of activity relative to SST28 10^−6 M
# Experimental: as §1, §2, §3, §4, §5, §6, §7, §8
# [1] = system: GHRH-stimulated GH release, primary cultures of rat anterior pituitary cells; assay: Inhibition of GHRH-induced GH release in rat pituitary primary cell culture; assay type: cell-based; conditions: rat GHRH 3x10^-9 M, 3 h 37 °C, GH by ELISA
# [2] = species, matrix, method and reference not given; cited from earlier work
# HA-tagged SSTR5 = assay: SSTR5 internalization in HEK293 cells, confocal microscopy; assay type: cell-based, human; conditions: 1 µM agonist, 30 min 37 °C
# Experimental: HEK293 cells obtained from DSMZ (Braunschweig, Germany) were transfected with plasmid encoding […] HA-tagged SSTR2, SSTR3 or SSTR5 receptors.
# HEK293 cells stably expressing HA-tagged hSSTR cultures were preincubated with anti-HA antibody for 2 h at 4 °C and then exposed to 1 µM agonist for 30 min at 37 °C before fixing and further labeling with Alexa488-conjugated secondary antibody. After mounting with Roti®-MountFluorCare DAPI, cultures were examined using a Zeiss LSM510 META laser scanning confocal microscope (Zeiss, Jena, Germany) (see Supplementary Materials for details).
# GH produced by primary cultures was tested by ELISA assay using Rat Growth Hormone Biotrak Enzyme immunoassay Mouse/Rat Growth ELISA (DSL-10-72100) or Rat/Mouse Growth Hormone ELISA (Millipore EZRMGH-45K) diluting supernatants 1:20, according to manufacturer’s instructions. […]
# as §7, §8
# SSTR2 = target: T1, SSTR2 (Homo sapiens, UniProt P30874); assay: SSTR2 phosphorylation, Western blot with phosphosite-specific antibodies, HEK293-transfected; assay type: cell-based; conditions: HEK293 stably expressing SSTR2, agonist 5 min 37 °C
# T1 construct: expressed in transfected cells
# T1 sequence (P30874 whole entry): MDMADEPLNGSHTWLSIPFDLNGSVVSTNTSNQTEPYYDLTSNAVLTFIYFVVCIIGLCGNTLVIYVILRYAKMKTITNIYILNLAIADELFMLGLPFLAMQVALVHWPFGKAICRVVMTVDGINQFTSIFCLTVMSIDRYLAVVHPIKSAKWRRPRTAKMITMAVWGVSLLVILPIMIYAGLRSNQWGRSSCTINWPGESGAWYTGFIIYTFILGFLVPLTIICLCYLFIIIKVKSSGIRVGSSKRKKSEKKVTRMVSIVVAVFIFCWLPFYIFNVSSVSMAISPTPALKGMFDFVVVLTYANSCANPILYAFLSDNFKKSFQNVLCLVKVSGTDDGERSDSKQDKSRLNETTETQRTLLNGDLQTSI
# Experimental: as §9, §10, §11, §12, §13, §14, §15
# δ (DOP) (h) = assay: Single-dose binding assay on δ opioid receptor; set-up: species or system human; conditions: 10^−5 M
# NOP (ORL1) (h) = assay: Single-dose binding assay on NOP receptor; set-up: species or system human; conditions: 10^−5 M
# µ (MOP) (h) = assay: Single-dose binding assay on µ opioid receptor; set-up: species or system human; conditions: 10^−5 M
compound,measurement,setting,value
"COc1cc2cccc(OC)c2cc1C[C@H]1NC(=O)[C@H](Cc2ccc(O)cc2)NC(=O)[C@@H]2C[C@@H](OC(=O)NCCN)CN2C(=O)[C@H](Cc2ccccc2)NC(=O)[C@H](Cc2ccc(OCc3ccccc3)cc2)NC(=O)[C@H](CCCCN)NC1=O [ITF2984, Cyclo[Tyr(Bn)-Phe-Pro(4-OCONH(CH2)2NH2)-Tyr-3,8-diMeONal-Lys]]","Receptor internalization in U2OS-transfected cells, SSTR5, at 10^−5 M",SSTR5-tGFP; 10^−5 M,34.6
same,"Receptor internalization in U2OS-transfected cells, SSTR5, at 10^−6 M (value in brackets)",SSTR5-tGFP; 10^−6 M,42.0
same,Phosphorylation SSTR sites (HEK293-transfected): SSTR3—PS337/T341,HA-SSTR3,++++
same,Phosphorylation SSTR sites (HEK293-transfected): SSTR3—PT438,HA-SSTR3,++++
same,"Receptor internalization in U2OS-transfected cells, SSTR2, at 10^−5 M",SSTR2-tGFP; 10^−5 M,37.3
same,"Receptor internalization in U2OS-transfected cells, SSTR2, at 10^−6 M (value in brackets)",SSTR2-tGFP; 10^−6 M,35.9
same,GH release (inhibition ≅ 1 nM),[1],50%
same,Half-time life,[2],18 h
same,internalization of SSTR5 in transfected HEK293 cells,HA-tagged SSTR5,partial internalization
same,Phosphorylation SSTR sites (HEK293-transfected): SSTR2—PS341/S343,SSTR2,++
same,Percentage of inhibition of opioid receptor δ (DOP) (h) (agonist),δ (DOP) (h),79%
same,Percentage of inhibition of opioid receptor NOP (ORL1) (h) (agonist),NOP (ORL1) (h),61%
same,Percentage of inhibition of opioid receptor µ (MOP) (h) (agonist),µ (MOP) (h),97%
